In patent US8992960B2, “Multifunctional silica-based compositions and gels, methods of making them, and methods of using them” (University of Florida Research Foundation, Inc., priority 2010, dated 2015):

Test: Reactivity of DMDS towards Cu(II) ions (odor over time)
Type: physicochemical
Settings: in CuSiNG; preliminary results, characteristic odor over time
Experimental: Unlike SiNG, the physico-chemical environment of DMDS in CuSiNG is expected to be somewhat different due to presence of Cu (II) ions. […] However, the DMDS electron-rich sulfur atom has the ability to weakly interact with electron-deficient Cu(II) ion. This could further facilitate adsorption of DMDS into CuSiNG. Thorough FT-IR studies are performed to understand the nature of intermolecular interactions that exist between DMDS and SiNG. In addition, thermogravimetric analysis (TGA), calorimetry and QCM sensing studies to obtain DMDS loading/release characteristics (isotherms) against CuSiNG and SiNG materials will be used to determine the role of Cu II ions in DMDS loading. A comparative isotherm data analysis along with FT-IR analysis will reveal the effect of Cu in DMDS loading/release process.

## CSSC [DMDS, dimethyl disulfide]
  reactivity to Cu(II) ions: non-reactive to Cu(II) ions
